Test results from patent US20240390490A1, “PHARMACEUTICAL COMPOSITIONS FOR THE TREATMENT OF CANCERS” (Rutgers, The State University of New Jersey, priority 2021, published 2024).
Read-outs that look alike come from different tables or passages of the source.

What was measured:
[1] = system: MDA-MB-231-cell-derived xenografts; test: Histopathology, immunohistochemistry and western blot of xenograft tumors; type: in vivo, rat; conditions: for level of E-cadherin in tumors / level of N-cadherin in tumors / levels of Snail, Slug, and Twist in tumors: immunoblotting; for level of CC3 in tumor tissue / levels of Bcl-xL and Bcl-2 in tumor tissue: western blot
Method: At the end of the experiment, a portion of tumor tissues was fixed in 10% neutral buffered formalin overnight and embedded in paraffin, was cut into 5-μm-thick sections, and stained with H&E according to previous publications (8). Representative areas of tumor were analyzed for the presence of tumor cells and photographs were captured under a light microscope (20× magnification) as previously described.
(§1) For protein analyses, tumor tissues from in vivo experiments, enriched NK cells from the spleen, and NK-92 MI cancer cell co-incubated samples were lysed with a buffer containing protease and phosphatase inhibitors (25 mM Tris-HCl, pH 7.4; 150 mM NaCl; 1% Nonidet P-40; 1 mM EDTA; and 5% glycerol with Pierce Halt Protease Inhibitor). Protein ([…]) from total lysate was loaded and separated on a 4-20% SDS-PAGE and transferred overnight to polyvinylidene difluoride membranes. Membranes were incubated with primary Ab for 12 hours at 4° C. in blocking buffer, 5% w/v nonfat dry milk in TBS, and 0.1% Tween 20. The following primary antibodies were purchased from Santa Cruz Biotechnology (Santa Cruz, CA): anti-perforin rabbit polyclonal (1:250), anti-granzyme B mouse monoclonal (1:200), anti-IFN-γ mouse monoclonal (1:250), anti-Snail (1:200), anti-Slug (1:200), and anti-Twist. Anti-E-cadherin (1:250), anti-N-cadherin (1:250), and anti-NKG2D goat polyclonal (1:500) were all from Abcam (Cambridge, MA). Membranes were washed and incubated with peroxidase-conjugated secondary Abs (1:5000; Vector Laboratories) for 1 hour at room temperature. Membranes were incubated with ECL western blot chemiluminescence reagent (Pierce) and exposed to x-ray film, which was developed, and densitometry was performed using Image J analysis software (National Institutes of Health). Each protein was normalized to corresponding intensities for β-actin.
Thin paraffin sections (5 μm) of tumors were stained using the ABC Elite Vectastain Kit (Vector Labs) according to the manufacturer's instructions using various primary antibodies. Details of all primary antibodies used are described above. In addition, cell proliferation-associated antigen (Ki-67; 1:200) were purchased from Abcam. After the primary antibody incubation and PBS wash, sections were incubated with peroxidase-coupled anti-rabbit Ig ImmPRESS reagent (Vector Laboratories, Inc.). Antigen localization was achieved by using the 3,3′-diaminobenzidine-peroxidase reaction, and sections were dehydrated, and cover slipped. To evaluate the immunohistochemical staining, sections were photographed using a Nikon-TE 2000 inverted microscope. Intensity of staining was categorized as negative and strongly positive (27). Brown-stained spots are immuno positive cells. Data are means±SEM obtained from 3 serial sections of 5 to 6 animals in each group.

[2] = system: MDA-MB-231, MDA-MB-468, and T47D cells; conditions: read-out: IC50 dose; range over cell lines and time of treatment (24, 48, 72 hours)
Method: (§2) Cells in media with vehicle treatment are considered control wells. MTT (3-(4,5-dimethyl-2-thiazolyl)-2,5-diphenyl-2H-tetrazolium bromide) was prepared as a stock solution of 5 mg/mL in 1× phosphate-buffered saline (PBS, pH 7.2). At the end of the drug treatment period (24 or 48 or 72 hours), 10 μL of MTT solution was added to each well. After incubation for 4 hours at 37° C., 100 μL of solubilizing buffer (10% sodium dodecyl sulfate dissolved in 0.01 N HCl) was added to each well. After a 15-minute incubation at 37° C., the 96-well plate was read by a plate reader at 590 nm for absorbance density values to determine the cell viability. The cell viability (percentage of control) is calculated by using the following formula: (OD of treated well (−blank))/(mean OD control well (−blank))×100. […] Drug effects on these cells were determined in quadruplicate wells in three independent experiments.

[3] = system: T47D cells; test: cells
Method: as §2

[4] = system: MDA-MB-468 cells; test: cells; conditions: read-out: Cell Viability IC50 (μM) ± SEM
Method: as §2

[5] = system: MDA-MB-231 cells; test: cells; conditions: read-out: Cell Viability IC50 (μM) ± SEM
Method: as §2

[6] = cited from earlier work
[7] = system: MDA-MB-231, MDA-MB-468, and T47D cells; test: Western blot of apoptotic regulatory proteins in breast cancer cells; type: cell-based, human; conditions: 100-μM, 48 hours (Example 9)
Method: as §1
The effects on apoptotic regulatory protein levels and signaling pathway were determined by treating MDA-MB-231, MDA-MB-468, and T47D cells with a 100-μM concentration of the drugs alone or in combination or vehicle alone for 48 hours. After the treatment period, cell were extracted and used for Western blot analysis of anti-apoptotic p-Bcl-xL and p-Bcl2, effector proteins such as p-Bax, pro-apoptotic molecule p-Bim, effector caspase 3 and Cytochrome c levels. Representative blots and mean densitometric values are presented as ratio of β-actin in the histograms. Data presented are mean±SEM (n=5-6 samples/group) and were analyzed using one-way ANOVA with the Newman-Keuls multiple comparisons post hoc test.

SMILES: CC1(C)SSC(C)(C)[C@@H](NC(=O)[C@@H](N)Cc2ccc(O)cc2)C(=O)NCC(=O)N[C@@H](Cc2ccccc2)C(=O)N[C@H]1C(=O)O [DPDPE, (D-Pen^2, D-Pen^5)-enkephalin]
- level of E-cadherin in tumors [1]: increase
- level of N-cadherin in tumors [1]: decrease
- levels of Snail, Slug, and Twist in tumors [1]: reduced
- level of CC3 in tumor tissue [1]: increased
- levels of Bcl-xL and Bcl-2 in tumor tissue [1]: decreased
- IC50 [2]: 115 to 140 µM
- IC50 ([3]; read-out: Cell Viability IC50 (μM) ± SEM, 24 h): 125.1 ± 1.21 µM
- IC50 ([3]; read-out: Cell Viability IC50 (μM) ± SEM, 48 h): 120.2 ± 1.17 µM
- IC50 ([3]; read-out: Cell Viability IC50 (μM) ± SEM, 72 h): 120.46 ± 0.04 µM
- IC50 ([4]; MDA-MB-468, 24 h): 115 ± 1.23 µM
- IC50 ([4]; MDA-MB-468, 48 h): 118 ± 1.22 µM
- IC50 ([4]; MDA-MB-468, 72 h): 120 ± 2.19 µM
- IC50 ([5]; MDA-MB-231, 24 h): 140.4 ± 0.39 µM
- IC50 ([5]; MDA-MB-231, 48 h): 120.8 ± 0.36 µM
- IC50 ([5]; MDA-MB-231, 72 h): 119.9 ± 1.07 µM

SMILES: O=C1CC[C@@]2(O)[C@H]3Cc4ccc(O)c5c4[C@@]2(CCN3CC2CC2)[C@H]1O5 [NTX, 17-(cyclopropylmethyl)-4,5α-epoxy-3,14-dihydroxymorphinan-6-one]
- level of CC3 in tumor tissue [1]: increased
- levels of Bcl-xL and Bcl-2 in tumor tissue [1]: decreased
- water solubility [6]: not water soluble
- IC50 ([3]; Homo sapiens, 24 h, read-out: Cell Viability IC50 (μM) ± SEM): 125 ± 1.37 µM
- IC50 ([3]; Homo sapiens, 48 h, read-out: Cell Viability IC50 (μM) ± SEM): 122 ± 1.72 µM
- IC50 ([3]; Homo sapiens, 72 h, read-out: Cell Viability IC50 (μM) ± SEM): 120 ± 1.61 µM
- IC50 ([4]; Homo sapiens, MDA-MB-468, 24 h): 122.4 ± 0.63 µM
- IC50 ([4]; Homo sapiens, MDA-MB-468, 48 h): 121 ± 1.82 µM
- IC50 ([4]; Homo sapiens, MDA-MB-468, 72 h): 120 ± 1.23 µM
- IC50 ([5]; Homo sapiens, MDA-MB-231, 24 h): 140.8 ± 0.15 µM
- IC50 ([5]; Homo sapiens, MDA-MB-231, 48 h): 120.5 ± 0.38 µM
- IC50 ([5]; Homo sapiens, MDA-MB-231, 72 h): 121 ± 1.65 µM
- anti-apoptotic Bcl-xL, p-Bcl-xL, Bcl-2, and p-Bcl-2 [7]: downregulated
- levels of Bax, p-Bax and p-Bim [7]: increased
- levels of Cytochrome c [7]: increased

SMILES: CC(C)NCC(O)COc1cccc2ccccc12 (centres unmarked) [PRO, propranolol]
- level of E-cadherin in tumors [1]: increase
- level of N-cadherin in tumors [1]: decrease
- levels of Snail, Slug, and Twist in tumors [1]: reduced
- level of CC3 in tumor tissue [1]: increased
- levels of Bcl-xL and Bcl-2 in tumor tissue [1]: decreased
- anti-apoptotic Bcl-xL, p-Bcl-xL, Bcl-2, and p-Bcl-2 [7]: downregulated
- levels of Bax, p-Bax and p-Bim [7]: increased
- levels of Cytochrome c [7]: increased
